Results from patent publication US20250353873A1, “COMPOUNDS AND METHODS FOR MODULATING APOE EXPRESSION” (Ionis Pharmaceuticals, Inc., priority 2024, published 2025).
Marks after values point to notes of the source that are not given here. Strand notation (5' to 3'): a small letter for the sugar, then the base; units joined by * are phosphorothioate-linked, units joined directly phosphodiester-linked; [ ] holds rarer units or linkages, { } end groups; capitals alone tell only the bases. [ms] = mesyl phosphoramidate linkage; e = 2'-O-(2-methoxyethyl) (MOE); k = constrained ethyl (cEt); [5mC] = 5-methylcytosine; d = 2'-deoxy (DNA)

Assays:
human APOE RNA [1] = test: Potency (dose response, ED50) in APOE C57BL/6NTac-Apoeem7250 knock-in mice, 8 weeks (Example 15); assay type: in vivo; details: for ED 50 (μg) Cortex / ED 50 (μg) Spinal Cord: single ICV bolus, GraphPad Prism 10
Experimental: Modified oligonucleotides described above were tested in the APOE C57BL/6NTac-Apoeem7250 knock-in mouse model described above.
APOE C57BL/6NTac-Apoeem7250 knock-in mice were divided into groups of 3-4 mice each. A group of 4 mice received a single ICV bolus with PBS as a negative control.
Eight weeks post treatment, mice were sacrificed, and RNA was extracted from cortical brain tissue and spinal cord for quantitative real-time RT-PCR analysis of RNA expression of […] using human primer probe set RTS3073 (described herein above). APOE RNA levels were normalized to mouse Ppia. Mouse Ppia was amplified using primer probe set m_cyclo24 (described herein above). Results are presented as percent human APOE RNA relative to the amount of APOE RNA in PBS treated animals, (% control). N.C. indicates values that were not calculated.
The half maximal effective dose (ED50) of each modified oligonucleotide was calculated using GraphPad Prism 10 software (GraphPad Software, San Diego, CA).

human APOE RNA [2] = test: Duration of action study in APOE C57BL/6NTac-Apoeem7250 knock-in mice (Example 18); assay type: in vivo
Experimental: Modified oligonucleotides described above were tested in the APOE C57BL/6NTac-Apoeem7250 knock-in model (described above).
Each mouse received a single intracerebroventricular (ICV) bolus of 300 μg of modified oligonucleotide. A group of 4-6 mice received a single ICV bolus with PBS as a negative control.
Mice were sacrificed at various timepoints as indicated in the table below and RNA was extracted from cortical brain tissue and spinal cord for quantitative real-time RT-PCR analysis of RNA expression of APOE using primer probe set RTS3073 (described herein above). APOE RNA levels were normalized to mouse Ppia. Mouse Ppia was amplified using primer probe set m_cyclo24 (described herein above). Results are presented as percent human APOE RNA relative to the amount of human APOE RNA in PBS treated animals, (% control). Each experiment is identified in separate tables below.

BJAB cells = test: Evaluation of proinflammatory effects in BJAB assay, CCL22 RNA (Example 17); details: for inflammatory response in human BJAB cells: 24-hour culturing period, assay of Example 17; for LOG10 CCL22 relative to UTC / Immunostimulatory Properties: BJAB cells, 1.6 μM, 24 hours; for LOG10 CCL22 relative to UTC: CCL22 RNA normalized to GAPDH; for Immunostimulatory Properties: assigned relative to internal control compounds of each assay
Experimental: Human APOE modified oligonucleotides were tested for potential immunostimulatory properties in an in vitro human BJAB activation assay.
Human Burkitt lymphoma B cells, BJAB cells (DSMZ, Cat #ACC 757) were cultured in RPMI1640 medium containing 20% fetal bovine serum at 37° C. and 5% CO2. Cells were maintained at a density of 0.5-0.7×10^6 cells per milliliter. Cells were transferred to 50 mL conical Falcon tubes and centrifuged at 330 RCF for 5 minutes before being resuspended at a concentration of 7.5×10^4 cells per milliliter in RPMI culture medium containing penicillin and streptomycin. 50 μL of the cell suspension was added to a v-bottom tissue culture treated 96-well microplate. 11 μl of 10× concentrated modified oligonucleotides was then added to the plate for a final concentration of 1.6 μM and incubated for 24 hours at 37° C. and 5% CO2.
After a treatment period of 24 hours, total RNA was isolated from the cells and CCL22 RNA levels were measured by quantitative real-time RT-PCR. CCL22 RNA levels were measured by human primer-probe set RTS49260 (forward sequence [sequence], designated herein as SEQ ID NO: 19; reverse sequence [sequence], designated herein as SEQ ID NO: 20; probe sequence [sequence], designated herein as SEQ ID NO: 21). CCL22 RNA levels were normalized to total RNA content, as measured by GAPDH. Human GAPDH was measured using the human primer-probe set RTS104 (forward sequence [sequence], designated herein as SEQ ID NO: 10; reverse sequence [sequence], designated herein as SEQ ID NO: 11; probe sequence [sequence], designated herein as SEQ ID NO: 12). Levels of CCL22 RNA is presented log fold increase of CCL22, relative to untreated control cells (UTC). The assignment of the immunostimulatory properties of the test compounds is based on the immunostimulatory properties of the internal control compounds in each assay.

human APOE RNA [3] = test: Activity in APOE C57BL/6NTac-Apoeem7250 knock-in mice, single ICV bolus, 2 weeks (Example 9); assay type: in vivo; details: single ICV bolus 300 μg
Experimental: Modified oligonucleotides described above were tested in the APOE knock-in mouse model C57BL/6NTac-Apoeem7250_B-A02(APOE)Tac, a heterozygous APOE mouse model. APOE knock-in mice used in this study express the full-length human APOE gene knocked into the mouse locus. Humanization of APOE gene was done via CRISPR/Cas-9-mediated gene editing, allowing for generation of a model with constitutive expression of human APOE gene. Targeting strategy was based on NCBI transcripts NM_009696.4 (mouse) and NM_000041.4 (human). Mouse genomic sequence from exon 1 to exon 4 (including the 5′ and 3′ UTRs) was replaced with the human counterpart from 141 bp upstream of exon 1 to 28 bp downstream of exon 4. A plasmid allowing expression of Cas9 mRNA, specific gRNA, and the puromycin resistance cassette, and a plasmid containing the homology regions of the mouse APOE gene, and the replaced human region were co-transfected into the Taconic Biosciences C57BL/6N Tac ES cell line. Homologous recombination clones were isolated using positive puromycin selection, and humanized allele was obtained after Cas9-mediated gene editing. C57BL/6NTac-Apoeem7250_B-A02(APOE)Tac mice were used in the in vivo experiments described below.
APOE C57BL/6NTac-Apoeem7250 knock-in mice were divided into groups of 3 mice each. Each mouse received a single ICV bolus of 300 μg of modified oligonucleotide. A group of 3 mice received a single ICV bolus with PBS as a negative control.
Two weeks post treatment, mice were sacrificed and RNA was extracted from cortical brain tissue and spinal cord for quantitative real-time RT-PCR analysis of RNA expression of APOE using human primer probe set RTS3073 (described herein above). APOE RNA levels were normalized to mouse Ppia. Mouse Ppia was amplified using primer probe set m_cyclo24 (described herein above). Results are presented as percent human APOE RNA relative to the amount of human APOE RNA in PBS treated animals, (% control).

[4] = 196 days post-dose, single ICV bolus 300 μg, APOE knock-in mice, normalized to mouse Ppia, relative to PBS
[5] = 224 days post-dose, single ICV bolus 300 μg, APOE knock-in mice, normalized to mouse Ppia, relative to PBS
[6] = 285 days post-dose, single ICV bolus 300 μg, APOE knock-in mice, normalized to mouse Ppia, relative to PBS

1785599: modified oligonucleotide complementary to human APOE RNA (k[5mC]*kT*kT*dG[ms]dG[ms]dT[ms]dG[ms]dA[ms]dA[ms]dT[ms]d[5mC]*dT*dT*dT*dA*dT*kT*kA*dA[ms]kA; antisense) [compound 1785599]
APOE RNA (% control) Cortex (human APOE RNA [1]; ICV dose 10 μg): 94 % control | APOE RNA (% control) Cortex (human APOE RNA [1]; ICV dose 30 μg): 72 % control | APOE RNA (% control) Cortex (human APOE RNA [1]; ICV dose 100 μg): 56 % control | APOE RNA (% control) Cortex (human APOE RNA [1]; ICV dose 300 μg): 37 % control | APOE RNA (% control) Cortex (human APOE RNA [1]; ICV dose 700 μg): 25 % control | ED 50 (μg) Cortex (human APOE RNA [1]): 143.3 µg | APOE RNA (% control) Spinal Cord (human APOE RNA [1]; ICV dose 10 μg): 54 % control | APOE RNA (% control) Spinal Cord (human APOE RNA [1]; ICV dose 30 μg): 38 % control | APOE RNA (% control) Spinal Cord (human APOE RNA [1]; ICV dose 100 μg): 16 % control | APOE RNA (% control) Spinal Cord (human APOE RNA [1]; ICV dose 300 μg): 13 % control | APOE RNA (% control) Spinal Cord (human APOE RNA [1]; ICV dose 700 μg): 12 % control | ED 50 (μg) Spinal Cord (human APOE RNA [1]): 12.18 µg

TezTeoGeoGksTdsGdzAdzAdzTds^mCdsTdsTdsTdsAdzTksTksAesAesAes^mCe (antisense eT[ms]eTeGkG*dT*dG[ms]dA[ms]dA[ms]dT*d[5mC]*dT*dT*dT*dA[ms]kT*kT*eA*eA*eA*e[5mC]) [Compound No. 1809814]
APOE RNA (% control) Cortex (human APOE RNA [1]; ICV dose 10 μg): 97 % control | APOE RNA (% control) Cortex (human APOE RNA [1]; ICV dose 30 μg): 85 % control | APOE RNA (% control) Cortex (human APOE RNA [1]; ICV dose 100 μg): 72 % control | APOE RNA (% control) Cortex (human APOE RNA [1]; ICV dose 300 μg): 47 % control | APOE RNA (% control) Cortex (human APOE RNA [1]; ICV dose 700 μg): 37 % control | ED 50 (μg) Cortex (human APOE RNA [1]): 309.5 µg | APOE RNA (% control) Spinal Cord (human APOE RNA [1]; ICV dose 10 μg): 81 % control | APOE RNA (% control) Spinal Cord (human APOE RNA [1]; ICV dose 30 μg): 60 % control | APOE RNA (% control) Spinal Cord (human APOE RNA [1]; ICV dose 100 μg): 45 % control | APOE RNA (% control) Spinal Cord (human APOE RNA [1]; ICV dose 300 μg): 29 % control | APOE RNA (% control) Spinal Cord (human APOE RNA [1]; ICV dose 700 μg): 28 % control | ED 50 (μg) Spinal Cord (human APOE RNA [1]): 78.7 µg | APOE RNA (% control) Cortex (human APOE RNA [2]; 300 μg ICV, 28 days post-dose): 55 % control | APOE RNA (% control) Cortex (human APOE RNA [2]; 300 μg ICV, 112 days post-dose): 57 % control | APOE RNA (% control) Cortex (human APOE RNA [2]; 300 μg ICV, 140 days post-dose): 71 % control | APOE RNA (% control) Cortex (human APOE RNA [2]; [4]): 68 % control | APOE RNA (% control) Cortex (human APOE RNA [2]; [5]): 90 % control | APOE RNA (% control) Cortex (human APOE RNA [2]; [6]): 95 % control | APOE RNA (% control) Spinal Cord (human APOE RNA [2]; 300 μg ICV, 28 days post-dose): 52 % control | APOE RNA (% control) Spinal Cord (human APOE RNA [2]; 300 μg ICV, 112 days post-dose): 39 % control | APOE RNA (% control) Spinal Cord (human APOE RNA [2]; 300 μg ICV, 140 days post-dose): 43 % control | APOE RNA (% control) Spinal Cord (human APOE RNA [2]; [4]): 57 % control | APOE RNA (% control) Spinal Cord (human APOE RNA [2]; [5]): 54 % control | APOE RNA (% control) Spinal Cord (human APOE RNA [2]; [6]): 84 % control | inflammatory response in human BJAB cells (BJAB cells): did not induce any inflammatory response | LOG10 CCL22 relative to UTC (BJAB cells): 0.07 | Immunostimulatory Properties (BJAB cells): Non-Inflammatory

1693105: 6-10-4 MOE gapmer CTTGGTGAATCTTTATTAAA, linkages sosssszzzssssszssss (e[5mC]*eTeT*eG*eG*eT*dG[ms]dA[ms]dA[ms]dT*d[5mC]*dT*dT*dT*dA[ms]dT*eT*eA*eA*eA) [compound 1693105]
APOE RNA (% control) Cortex (human APOE RNA [3]; Cortex): 65 % control | APOE RNA (% control) Spinal Cord (human APOE RNA [3]; Spinal Cord): 54 % control

^mCksTksTksGdzGdzTdzGdzAdzAdzTds^mCdsTdsTdsTdsAdsTdsTksAksAdzAk (antisense k[5mC]*kT*kT*dG[ms]dG[ms]dT[ms]dG[ms]dA[ms]dA[ms]dT*d[5mC]*dT*dT*dT*dA*dT*kT*kA*dA[ms]kA) [Compound No. 1785602]
APOE RNA (% control) Cortex (human APOE RNA [1]; ICV dose 10 μg): 95 % control | APOE RNA (% control) Cortex (human APOE RNA [1]; ICV dose 30 μg): 90 % control | APOE RNA (% control) Cortex (human APOE RNA [1]; ICV dose 100 μg): 57 % control | APOE RNA (% control) Cortex (human APOE RNA [1]; ICV dose 300 μg): 31 % control | APOE RNA (% control) Cortex (human APOE RNA [1]; ICV dose 700 μg): 21 % control | ED 50 (μg) Cortex (human APOE RNA [1]): 153.2 µg | APOE RNA (% control) Spinal Cord (human APOE RNA [1]; ICV dose 10 μg): 73 % control | APOE RNA (% control) Spinal Cord (human APOE RNA [1]; ICV dose 30 μg): 40 % control | APOE RNA (% control) Spinal Cord (human APOE RNA [1]; ICV dose 100 μg): 26 % control | APOE RNA (% control) Spinal Cord (human APOE RNA [1]; ICV dose 300 μg): 20 % control | APOE RNA (% control) Spinal Cord (human APOE RNA [1]; ICV dose 700 μg): 22 % control | ED 50 (μg) Spinal Cord (human APOE RNA [1]): 26.9 µg | APOE RNA (% control) Cortex (human APOE RNA [2]; [4]): 56 % control | APOE RNA (% control) Cortex (human APOE RNA [2]; [5]): 79 % control | APOE RNA (% control) Cortex (human APOE RNA [2]; [6]): 84† % control | APOE RNA (% control) Spinal Cord (human APOE RNA [2]; [4]): 34 % control | APOE RNA (% control) Spinal Cord (human APOE RNA [2]; [5]): 56 % control | APOE RNA (% control) Spinal Cord (human APOE RNA [2]; [6]): 72† % control | inflammatory response in human BJAB cells (BJAB cells): did not induce any inflammatory response | LOG10 CCL22 relative to UTC (BJAB cells): 0.34 | Immunostimulatory Properties (BJAB cells): Non-Inflammatory
